Assay results published in PMC7407272, “Induction of Lysosome Membrane Permeabilization as a Therapeutic Strategy to Target Pancreatic Cancer Stem Cells” (Cancers, 2020).

What was measured:
Assay in all cases: KINOMEscan
Format in all cases: binding
Settings in all cases: read-out: % Ctrl
AAK1 = target: T1, AAK1 (Homo sapiens, UniProt Q2M2I8)
T1 construct: purchased DiscoveRx KINOMEscan

PDGFRA = target: T2, PDGFRA (Homo sapiens, UniProt P16234)
T2 construct: purchased DiscoveRx KINOMEscan

PFCDPK1(P.falciparum) = target: T3, PFCDPK1(P.falciparum) (Plasmodium falciparum, UniProt P62344)
T3 construct: purchased DiscoveRx KINOMEscan

FLT3 = target: T4, FLT3 (Homo sapiens, UniProt P36888)
T4 construct: purchased DiscoveRx KINOMEscan

FLT3(D835H) = target: T5, FLT3(D835H) (Homo sapiens, UniProt P36888, D835H)
T5 construct: purchased DiscoveRx KINOMEscan

ABL1(Q252H)-P = target: T6, ABL1(Q252H)-P (Homo sapiens, UniProt P00519, Q252H)
T6 construct: purchased DiscoveRx KINOMEscan

PIK3CB = target: T7, PIK3CB (Homo sapiens, UniProt P42338)
T7 construct: purchased DiscoveRx KINOMEscan

AKT1 = target: T8, AKT1 (Homo sapiens, UniProt P31749)
T8 construct: purchased DiscoveRx KINOMEscan

AMPK-alpha2 = target: T9, AMPK-alpha2 (Homo sapiens, UniProt P54646)
T9 construct: purchased DiscoveRx KINOMEscan

PIP5K2B = target: T10, PIP5K2B (Homo sapiens, UniProt P78356)
T10 construct: purchased DiscoveRx KINOMEscan

PIP5K2C = target: T11, PIP5K2C (Homo sapiens, UniProt Q8TBX8)
T11 construct: purchased DiscoveRx KINOMEscan

PKMYT1 = target: T12, PKMYT1 (Homo sapiens, UniProt Q99640)
T12 construct: purchased DiscoveRx KINOMEscan

PKN2 = target: T13, PKN2 (Homo sapiens, UniProt Q16513)
T13 construct: purchased DiscoveRx KINOMEscan

PLK1 = target: T14, PLK1 (Homo sapiens, UniProt P53350)
T14 construct: purchased DiscoveRx KINOMEscan

INSR = target: T15, INSR (Homo sapiens, UniProt P06213)
T15 construct: purchased DiscoveRx KINOMEscan

PRKCE = target: T16, PRKCE (Homo sapiens, UniProt Q02156)
T16 construct: purchased DiscoveRx KINOMEscan

PRKR = target: T17, PRKR (Homo sapiens, UniProt P19525)
T17 construct: purchased DiscoveRx KINOMEscan

CDC2L5 = target: T18, CDC2L5 (Homo sapiens, UniProt Q14004)
T18 construct: purchased DiscoveRx KINOMEscan
Protocol: (§1) The KINOMEscan ^TM screening platform employs an active site-directed competition binding assay to quantitatively measure interactions between test compound and 468 human kinases and disease relevant mutant variants. […] The assay was performed at DiscoveRx Corporation.

PRP4 = target: T19, PRP4 (Homo sapiens, UniProt Q13523)
T19 construct: purchased DiscoveRx KINOMEscan
Protocol: as §1

CAMK2G = target: T20, CAMK2G (Homo sapiens, UniProt Q13555)
T20 construct: purchased DiscoveRx KINOMEscan

RET(M918T) = target: T21, RET(M918T) (Homo sapiens, UniProt P07949, M918T)
T21 construct: purchased DiscoveRx KINOMEscan

KIT(V559D,T670I) = target: T22, KIT(V559D,T670I) (Homo sapiens, UniProt P10721, T670I/V559D)
T22 construct: purchased DiscoveRx KINOMEscan

CDK4-cyclinD1 = target: T23, CDK4-cyclinD1 (Homo sapiens, UniProt P11802)
T23 construct: purchased DiscoveRx KINOMEscan

RSK3(KD2-C-t.) = target: T24, RSK3(KD2-C-t.) (Homo sapiens, UniProt Q15349)
T24 construct: RSK3(KD2-C-t.); purchased DiscoveRx KINOMEscan

SGK = target: T25, SGK (Homo sapiens, UniProt O00141)
T25 construct: purchased DiscoveRx KINOMEscan

SgK110 = target: T26, SgK110 (Homo sapiens, UniProt P0C264)
T26 construct: purchased DiscoveRx KINOMEscan

SGK3 = target: T27, SGK3 (Homo sapiens, UniProt Q96BR1)
T27 construct: purchased DiscoveRx KINOMEscan

SLK = target: T28, SLK (Homo sapiens, UniProt Q9H2G2)
T28 construct: purchased DiscoveRx KINOMEscan

SRPK1 = target: T29, SRPK1 (Homo sapiens, UniProt Q96SB4)
T29 construct: purchased DiscoveRx KINOMEscan

DAPK2 = target: T30, DAPK2 (Homo sapiens, UniProt Q9UIK4)
T30 construct: purchased DiscoveRx KINOMEscan

DCAMKL3 = target: T31, DCAMKL3 (Homo sapiens, UniProt Q9C098)
T31 construct: purchased DiscoveRx KINOMEscan

TAK1 = target: T32, TAK1 (Homo sapiens, UniProt O43318)
T32 construct: purchased DiscoveRx KINOMEscan

DRAK2 = target: T33, DRAK2 (Homo sapiens, UniProt O94768)
T33 construct: purchased DiscoveRx KINOMEscan

[1] = target: T34, EGFR(L747-S752del, P753S) (Homo sapiens, UniProt P00533, DEL747-752/P753S)
T34 construct: purchased DiscoveRx KINOMEscan

TNK2 = target: T35, TNK2 (Homo sapiens, UniProt Q07912)
T35 construct: purchased DiscoveRx KINOMEscan

NDR1 = target: T36, NDR1 (Homo sapiens, UniProt Q15208)
T36 construct: purchased DiscoveRx KINOMEscan

EIF2AK1 = target: T37, EIF2AK1 (Homo sapiens, UniProt Q9BQI3)
T37 construct: purchased DiscoveRx KINOMEscan

VEGFR2 = target: T38, VEGFR2 (Homo sapiens, UniProt P35968)
T38 construct: purchased DiscoveRx KINOMEscan

NLK = target: T39, NLK (Homo sapiens, UniProt Q9UBE8)
T39 construct: purchased DiscoveRx KINOMEscan

PAK3 = target: T40, PAK3 (Homo sapiens, UniProt O75914)
T40 construct: purchased DiscoveRx KINOMEscan

YES = target: T41, YES (Homo sapiens, UniProt P07947)
T41 construct: purchased DiscoveRx KINOMEscan

FER = target: T42, FER (Homo sapiens, UniProt P16591)
T42 construct: purchased DiscoveRx KINOMEscan

T23 sequence (P11802 whole entry): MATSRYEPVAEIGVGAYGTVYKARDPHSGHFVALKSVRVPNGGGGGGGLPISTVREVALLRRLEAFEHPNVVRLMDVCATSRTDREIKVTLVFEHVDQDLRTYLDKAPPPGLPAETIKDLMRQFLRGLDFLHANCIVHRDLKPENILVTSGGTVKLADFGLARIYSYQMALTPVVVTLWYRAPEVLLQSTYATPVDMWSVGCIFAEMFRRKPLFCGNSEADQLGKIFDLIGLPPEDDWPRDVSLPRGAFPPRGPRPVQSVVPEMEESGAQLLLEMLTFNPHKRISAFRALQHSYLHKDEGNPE
T23 sequence (P24385 whole entry partner): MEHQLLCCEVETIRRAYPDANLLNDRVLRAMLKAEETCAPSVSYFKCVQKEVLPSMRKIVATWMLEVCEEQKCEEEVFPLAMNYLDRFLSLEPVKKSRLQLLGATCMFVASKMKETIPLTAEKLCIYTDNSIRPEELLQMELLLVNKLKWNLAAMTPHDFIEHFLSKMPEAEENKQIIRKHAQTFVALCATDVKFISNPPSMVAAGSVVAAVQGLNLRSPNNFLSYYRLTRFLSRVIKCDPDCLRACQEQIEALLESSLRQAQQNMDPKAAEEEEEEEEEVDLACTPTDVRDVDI
T12 sequence (Q99640 whole entry): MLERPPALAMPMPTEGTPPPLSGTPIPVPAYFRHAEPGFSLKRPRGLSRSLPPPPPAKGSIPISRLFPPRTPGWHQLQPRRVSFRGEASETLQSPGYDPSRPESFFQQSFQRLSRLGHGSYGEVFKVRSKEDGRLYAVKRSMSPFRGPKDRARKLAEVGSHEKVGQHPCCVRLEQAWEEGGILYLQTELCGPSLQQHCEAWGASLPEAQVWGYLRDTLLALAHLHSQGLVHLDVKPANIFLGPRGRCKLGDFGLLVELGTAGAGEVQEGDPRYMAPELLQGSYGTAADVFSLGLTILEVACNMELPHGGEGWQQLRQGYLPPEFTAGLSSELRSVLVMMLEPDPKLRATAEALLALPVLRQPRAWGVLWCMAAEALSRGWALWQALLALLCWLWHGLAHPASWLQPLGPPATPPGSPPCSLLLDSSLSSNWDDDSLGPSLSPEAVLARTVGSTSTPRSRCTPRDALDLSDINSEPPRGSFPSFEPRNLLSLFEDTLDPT
T24 sequence (Q15349 389-733 limits assumed): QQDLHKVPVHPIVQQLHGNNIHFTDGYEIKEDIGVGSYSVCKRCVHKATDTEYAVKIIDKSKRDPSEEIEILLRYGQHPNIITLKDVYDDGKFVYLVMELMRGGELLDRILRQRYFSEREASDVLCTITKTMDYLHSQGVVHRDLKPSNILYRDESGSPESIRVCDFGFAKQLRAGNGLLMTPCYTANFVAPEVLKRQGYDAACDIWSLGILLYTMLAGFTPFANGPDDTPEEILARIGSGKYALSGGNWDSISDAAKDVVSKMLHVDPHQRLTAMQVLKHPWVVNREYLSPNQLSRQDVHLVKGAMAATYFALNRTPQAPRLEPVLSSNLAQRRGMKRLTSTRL
T8 sequence (P31749 whole entry): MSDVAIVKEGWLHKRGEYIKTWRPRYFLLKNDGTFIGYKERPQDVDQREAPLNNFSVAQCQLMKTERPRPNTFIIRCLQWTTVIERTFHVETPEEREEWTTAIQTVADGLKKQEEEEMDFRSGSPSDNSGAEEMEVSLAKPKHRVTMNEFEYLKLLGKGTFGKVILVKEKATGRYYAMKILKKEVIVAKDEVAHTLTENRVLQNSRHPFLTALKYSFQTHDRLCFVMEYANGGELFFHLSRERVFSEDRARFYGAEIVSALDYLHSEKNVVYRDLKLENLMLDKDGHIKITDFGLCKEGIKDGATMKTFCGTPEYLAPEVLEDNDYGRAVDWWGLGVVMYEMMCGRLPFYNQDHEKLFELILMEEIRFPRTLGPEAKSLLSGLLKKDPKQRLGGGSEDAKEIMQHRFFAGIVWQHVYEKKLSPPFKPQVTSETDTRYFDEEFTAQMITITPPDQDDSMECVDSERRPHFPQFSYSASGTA
T28 sequence (Q9H2G2 whole entry): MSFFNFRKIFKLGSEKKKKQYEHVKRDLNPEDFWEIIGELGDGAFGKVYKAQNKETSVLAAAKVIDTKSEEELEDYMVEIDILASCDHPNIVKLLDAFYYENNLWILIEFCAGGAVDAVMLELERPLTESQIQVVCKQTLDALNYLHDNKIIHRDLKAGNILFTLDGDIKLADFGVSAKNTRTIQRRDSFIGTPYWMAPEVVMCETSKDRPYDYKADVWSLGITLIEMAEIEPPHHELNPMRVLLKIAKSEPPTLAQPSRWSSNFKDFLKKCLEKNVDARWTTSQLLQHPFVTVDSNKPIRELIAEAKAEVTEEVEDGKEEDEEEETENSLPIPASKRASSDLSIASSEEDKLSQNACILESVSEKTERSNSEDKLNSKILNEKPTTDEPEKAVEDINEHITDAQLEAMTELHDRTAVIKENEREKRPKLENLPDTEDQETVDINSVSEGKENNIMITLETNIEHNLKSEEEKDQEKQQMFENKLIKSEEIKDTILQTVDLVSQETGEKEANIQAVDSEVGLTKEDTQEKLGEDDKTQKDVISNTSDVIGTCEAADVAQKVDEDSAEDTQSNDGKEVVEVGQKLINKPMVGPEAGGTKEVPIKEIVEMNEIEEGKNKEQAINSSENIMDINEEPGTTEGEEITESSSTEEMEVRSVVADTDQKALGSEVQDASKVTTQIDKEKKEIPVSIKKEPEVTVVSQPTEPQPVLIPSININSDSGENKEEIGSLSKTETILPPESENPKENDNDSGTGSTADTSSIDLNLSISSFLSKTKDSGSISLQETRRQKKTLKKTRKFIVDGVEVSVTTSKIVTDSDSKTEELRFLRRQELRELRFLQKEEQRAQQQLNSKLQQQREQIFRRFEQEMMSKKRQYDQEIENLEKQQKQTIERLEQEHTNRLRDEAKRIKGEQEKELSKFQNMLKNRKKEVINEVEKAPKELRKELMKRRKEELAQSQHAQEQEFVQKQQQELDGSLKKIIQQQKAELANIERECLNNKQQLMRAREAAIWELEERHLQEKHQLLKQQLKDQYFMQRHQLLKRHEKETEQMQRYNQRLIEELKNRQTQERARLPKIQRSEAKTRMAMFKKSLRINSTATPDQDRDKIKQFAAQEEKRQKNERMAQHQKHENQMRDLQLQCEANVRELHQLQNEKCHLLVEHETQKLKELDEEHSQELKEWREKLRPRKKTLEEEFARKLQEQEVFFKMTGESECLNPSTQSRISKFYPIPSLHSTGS
T9 sequence (P54646 whole entry): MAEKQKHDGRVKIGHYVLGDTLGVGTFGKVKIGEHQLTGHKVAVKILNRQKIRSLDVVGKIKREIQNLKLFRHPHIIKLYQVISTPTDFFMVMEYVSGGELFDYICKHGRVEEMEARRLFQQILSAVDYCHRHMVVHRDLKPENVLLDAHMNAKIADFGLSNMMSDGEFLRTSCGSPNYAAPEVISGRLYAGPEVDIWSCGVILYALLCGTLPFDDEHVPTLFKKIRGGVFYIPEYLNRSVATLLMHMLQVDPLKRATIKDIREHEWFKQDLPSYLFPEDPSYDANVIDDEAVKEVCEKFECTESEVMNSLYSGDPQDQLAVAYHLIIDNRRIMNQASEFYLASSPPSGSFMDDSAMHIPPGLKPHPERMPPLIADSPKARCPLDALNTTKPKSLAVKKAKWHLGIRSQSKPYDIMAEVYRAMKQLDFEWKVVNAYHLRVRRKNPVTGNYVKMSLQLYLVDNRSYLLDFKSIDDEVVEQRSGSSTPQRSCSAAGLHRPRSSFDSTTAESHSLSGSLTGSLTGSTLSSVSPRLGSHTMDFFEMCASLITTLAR
T21 sequence (P07949 29-1114 M918T): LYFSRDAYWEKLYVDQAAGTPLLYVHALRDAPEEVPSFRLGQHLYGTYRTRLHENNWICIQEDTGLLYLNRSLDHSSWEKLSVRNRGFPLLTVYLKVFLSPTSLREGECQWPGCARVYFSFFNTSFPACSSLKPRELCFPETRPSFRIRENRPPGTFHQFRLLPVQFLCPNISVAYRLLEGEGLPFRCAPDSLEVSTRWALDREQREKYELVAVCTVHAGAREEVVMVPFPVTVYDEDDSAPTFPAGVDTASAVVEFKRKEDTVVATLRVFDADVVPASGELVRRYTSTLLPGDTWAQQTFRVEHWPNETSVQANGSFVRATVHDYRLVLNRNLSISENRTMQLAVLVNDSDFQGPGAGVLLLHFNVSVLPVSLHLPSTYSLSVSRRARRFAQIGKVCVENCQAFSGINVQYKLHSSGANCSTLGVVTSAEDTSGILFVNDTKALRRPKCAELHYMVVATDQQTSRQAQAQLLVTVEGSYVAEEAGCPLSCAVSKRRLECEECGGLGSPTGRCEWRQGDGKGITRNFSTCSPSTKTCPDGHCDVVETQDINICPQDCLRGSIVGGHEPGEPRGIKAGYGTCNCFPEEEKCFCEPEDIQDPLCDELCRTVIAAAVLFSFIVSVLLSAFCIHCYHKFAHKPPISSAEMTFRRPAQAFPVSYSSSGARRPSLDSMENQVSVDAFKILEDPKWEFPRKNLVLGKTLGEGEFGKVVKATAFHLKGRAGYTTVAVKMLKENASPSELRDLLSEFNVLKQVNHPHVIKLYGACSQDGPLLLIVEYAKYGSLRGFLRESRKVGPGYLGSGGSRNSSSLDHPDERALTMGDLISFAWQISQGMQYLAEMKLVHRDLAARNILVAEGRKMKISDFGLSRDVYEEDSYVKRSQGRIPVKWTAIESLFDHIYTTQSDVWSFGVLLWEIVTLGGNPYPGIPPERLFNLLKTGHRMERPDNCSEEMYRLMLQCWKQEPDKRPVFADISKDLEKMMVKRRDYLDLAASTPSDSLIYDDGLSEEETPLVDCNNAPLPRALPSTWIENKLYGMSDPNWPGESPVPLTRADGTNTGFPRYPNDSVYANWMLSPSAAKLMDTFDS

In the case of `CN1CCC(CNc2ccc3ncc(C(=O)Nc4cccc(OC(F)(F)F)c4)n3n2)CC1` [Cpd 2], the remaining binding at 1 µM (AAK1) is reported as 89%, the remaining binding at 1 µM (PDGFRA) is reported as 81% and the remaining binding at 1 µM (PFCDPK1(P.falciparum)) is reported as 88%. It also gave a remaining binding at 1 µM (FLT3) of 92%, a remaining binding at 1 µM (FLT3(D835H)) of 74% and a remaining binding at 1 µM (ABL1(Q252H)-P) of 100%. For the same molecule, the remaining binding at 1 µM (PIK3CB) was 91%, the remaining binding at 1 µM (AKT1) was 100% and the remaining binding at 1 µM (AMPK-alpha2) was 100%. It also gave a remaining binding at 1 µM (PIP5K2B) of 95%, a remaining binding at 1 µM (PIP5K2C) of 58% and a remaining binding at 1 µM (PKMYT1) of 75%. For the same molecule, the remaining binding at 1 µM (PKN2) was 79%, the remaining binding at 1 µM (PLK1) was 98% and the remaining binding at 1 µM (INSR) was 100%. The remaining binding at 1 µM (PRKCE) was 70%, the remaining binding at 1 µM (PRKR) was 83% and the remaining binding at 1 µM (CDC2L5) was 100%. It also gave a remaining binding at 1 µM (PRP4) of 100%, a remaining binding at 1 µM (CAMK2G) of 100% and a remaining binding at 1 µM (RET(M918T)) of 100%. The remaining binding at 1 µM (KIT(V559D,T670I)) was 100%, the remaining binding at 1 µM (CDK4-cyclinD1) was 100% and the remaining binding at 1 µM (RSK3(KD2-C-t.)) was 74%. For the same molecule, the remaining binding at 1 µM (SGK) was 85%, the remaining binding at 1 µM (SgK110) was 72% and the remaining binding at 1 µM (SGK3) was 100%. It also gave a remaining binding at 1 µM (SLK) of 79%, a remaining binding at 1 µM (SRPK1) of 95% and a remaining binding at 1 µM (DAPK2) of 89%. For the same molecule, the remaining binding at 1 µM (DCAMKL3) was 100%, the remaining binding at 1 µM (TAK1) was 70% and the remaining binding at 1 µM (DRAK2) was 80%. For the same molecule, the remaining binding at 1 µM [1] was 92%, the remaining binding at 1 µM (TNK2) was 99% and the remaining binding at 1 µM (NDR1) was 89%. For the same molecule, the remaining binding at 1 µM (EIF2AK1) was 95%, the remaining binding at 1 µM (VEGFR2) was 100% and the remaining binding at 1 µM (NLK) was 97%. For the same molecule, the remaining binding at 1 µM (PAK3) was 98%, the remaining binding at 1 µM (YES) was 95% and the remaining binding at 1 µM (FER) was 98%.
